Series [1] deals with sclera. Briefly: Content of collagen specific amino acids in rabbit sclera after long term treatment (HPLC). Type of series: in vivo. The conditions noted are these: dried defatted weight, 10 weeks treatment (Example 4).
Series [2] deals with T1, skeletal RyR (Oryctolagus cuniculus, UniProt P11716).
T1 construct: Structure-activity Relationship of Xanthines and Skeletal Muscle Ryanodine Receptor/Ca^2+ Release Channel; from tissue; host or cells: Skeletal muscle
Conditions: cited from earlier work; for Effect on [3H ryanodine binding in % compared to control: values of Table 3 without AMP/AMPPCP, caffeine represented by 1,7-dimethylxanthine; for Bound [3H]ryanodine % of control / Bound [3H]ryanodine pmol/mg protein / Bound [3H]ryanodine, % of control, +1 mmol/l AMPPCP / Bound [3H]ryanodine, % of control, +3 mmol/l AMP: xanthine […]; for Bound [3H]ryanodine % of control / Bound [3H]ryanodine pmol/mg protein: 1 mmol/l AMPPCP; for Bound [3H]ryanodine % of control / Bound [3H]ryanodine, % of control, +1 mmol/l AMPPCP / Bound [3H]ryanodine, % of control, +3 mmol/l AMP: control (-xanthine) = 100; for Bound [3H]ryanodine pmol/mg protein: means±SD of 3-4 experiments.

The subject of series [3] is sclera. Briefly: Content of proteoglycanes in rabbit sclera after long term treatment (alcian blue method). Type of series: in vivo. More on the design: Proteoglycanes Decrease compared to the control, anterior sclera / Proteoglycanes Increase compared to the control, anterior sclera / Proteoglycanes Increase compared to the control, posterior sclera / Effect on proteoglycan content of posterior sclera in % compared to control: concentration or dose not given beside the values. Conditions: for content of proteoglycans in posterior sclera (in words): Example 4, versus control; for Effect on proteoglycan content of posterior sclera in % compared to control: rabbit, Examples 2 and 4; for Content of proteoglycanes, anterior sclera / Content of proteoglycanes, posterior sclera: wet weight. Here is the method: (§1) Test animal: Charles River Deutschland Chinchilla Bastard female rabbits.
(§2) Number of animals: 6 test animals and 6 control animals
(§3) Age: approximately 8 weeks at the commencement of the test.
(§4) Weight: 1.4-1.9 kg at the commencement of the test.
Lightness/Darkness cycle: 12/12 hours.
(§5) Cages: The animals live in identical cages made of stainless steel (Scanbur), length 1 m, depth 0.52 m, height 0.5 m.
Food: Stanrab standard diet from Special Diet Services, P.O. Box 705, Witham Essex CM8 3AD, UK (further details, see Table A).
(§6) Amount of food: Increasing from 75 g per day at the commencement of the test up to 130 g after three months.
(§7) Experimental drinking water 1 contained theophyllin in a dose equivalent of 27 mg increasing to 63 mg (added as theophyllin and ethylendiamin in a dose of 33 to 77 mg) daily.
(§8) Experimental drinking water 2 contained fluoxetine (Fontex, Lilly) in a dose equivalent of 2 mg increasing to 5 mg daily.
Experimental diet 2 was added 4.5 g L-cystine per kg Stanrab standard diet equivalent of a daily L-cystine dose of 338 mg increasing to 585 mg per day. With respect to the supplement of L-cystine, the normal intake per day of the standard diet is 218 mg increasing to 377 mg L-cystine.
(§9) Experimental diet 3 was added 7-methylxanthine 500 mg per kg Stanrab standard diet equivalent of a daily 7-methylxanthine dose of […] per day.
(§10) Experimental diet 4 was added theobromine (3,7-dimethylxanthine) 500 mg per kg Stanrab standard diet equivalent of a daily theobromine dose of […] per day.
(§11) Experimental diet 5 was added acetazolamide 500 mg per kg Stanrab standard diet equivalent of a daily acetazolamide dose of […] per day.
Experimental diet 6 was added 4.5 g L-ornithine per kg Stanrab standard diet equivalent of a daily L-ornithine dose of 338 mg increasing to 585 mg per day.
(§12) Collection of sample: Sclera biopsies are taken for analysis for proteoglycane content, distribution between the individual glycosaminoglycanes and the content of collagen specific amino acids. Four tests from each animal: Two samples from the front, 5×10 mm along limbus (without cornea), and two samples from the back, punch 10 mm corresponding to the center of the retina. Furthermore, tests are taken for electron microscopy (EM) from two animals in each group.
Analyses: Samples for proteoglycane analysis are frozen down immediately. The samples are analyzed by Wieslab AB, IDEON, S-223 70 Lund, Sweden, by means of a method which has been described by Björnsson, S., Analytical Biochemistry 210, 282-291 (1993). The method comprises extraction by 20 microliters of 4 M guanidine-HCl, 50 Mm sodium acetate per mg wet weight over night by room temperatures. The extracts are centrifuged in order to remove debris. 20 microliters of supernatant are reduced 1/10 in extraction buffer and 20 microliters of reduced supernatant are mixed with 10 microliters of reagent 1 (see Björnsson, S., Analytical biochemistry 210, 282-291 (1993)) on a shaking table for 15 minutes. 200 microliters of reagent 2 are added and the tests are incubated for 60 minutes in order to precipitate the proteoglycanes. The proteoglycane/alcian blue precipitate is transferred to 96-wells MillBlotD apparatus and washed with 2×200 microliters of 40% DMSO, 0.05 M of MgCl2. The colour intensity of the wells are quantitated by microtech E3 scanner and Scan Analysis software (Biosoft, Cambridge, U.K.). Chrondroitine-6-sulphate (Sigma C4384) is used as the calibrator. All samples are analyzed in duplicate.
The results of longterm treatment with each of the 8 substances specified above are shown in Example 2 (treatment for 12 weeks) and Example 4 (treatment for 10 weeks).

The test system of series [4] is sclera. Briefly: Content of collagen specific amino acids in rabbit sclera after long term treatment (HPLC). Type of series: in vivo.
Source text: as §1, §2, §3, §4, §5, §6, §7, §8, §9, §10, §11, §12
Samples for analysis for content of collagen specific amino acids are frozen down immediately. The amino acid content is determined by HPLC-chromatography.
The dried tissue with constant weight is minced into very fine particles with a pair of scissors, approximately 20 per piece of tissue. The small flakes from each original piece of tissue ate divided into two equally sized portions, one of which is employed for hydrolysis and the other one is kept for reference. The constant dry weight of each portion is known.
From each resolubilized hydrolysate 3 aliquots of each 8 microliters and 3 aliquots of 40 μl are taken and transferred to separate polypropylene tubes in which 20 microliters of a solution of internal standard substances citrulline and 2 aminobutyric acid were added where the further method takes place.
The taken aliquots from hydrolysate are dried in a vacuum exsiccator at 35° C. over night and subsequently submitted to derivatization with phenylisothiocyanate.
The resulting phenylisothiocarbamates are transferred to the HPLC instrument for separation and quantification. A new set of calibration curves is established, 1 curve for each of the 19 amino acids, prior to the analysis of the samples from one investigation.
The concentration range of standard samples exceed the ranges of amino acid concentrations in the unknowns. Hydroxyproline and proline are quantitated from the 8 microliter aliquots, and hydroxylysine is quantitated from the 40 microliter aliquots.

In series [5] the test system is retinal pigment epithelium. Nature of the series: c-wave at ERG and standing potential of the eye. Conditions: in vivo. The text has this:
Registration of c-Wave at ERG in animals (e.g. rabbits) is a well-developed examination technique (Skoog, K. O., Nilsson, S. E. G., Acta Ophthalmol. (Kph), 52: 759-773 (1974), Jarkman, S., Skoog, K. O., Doc. Ophthalmol., 60: 383-392 (1985)). Also intraoccular administration of test substances for test animals is also a well-described-technique (Textorius O., Doc. Ophthalmol., 63:349-358 (1986)). Alternatively, test substances can be administered intravenously (Jarkman, S., Doc. Ophthalmol. 60: 375-382 (1985)).

In series [6] the test system is eye. Conditions: test animals exposed to visual deprivation; cited from earlier work.
The mark [7] stands for this setting: posterior sclera, 10 weeks treatment (Example 4).

Marks after values point to notes of the source that are not given here.

T1 sequence (P11716 whole entry): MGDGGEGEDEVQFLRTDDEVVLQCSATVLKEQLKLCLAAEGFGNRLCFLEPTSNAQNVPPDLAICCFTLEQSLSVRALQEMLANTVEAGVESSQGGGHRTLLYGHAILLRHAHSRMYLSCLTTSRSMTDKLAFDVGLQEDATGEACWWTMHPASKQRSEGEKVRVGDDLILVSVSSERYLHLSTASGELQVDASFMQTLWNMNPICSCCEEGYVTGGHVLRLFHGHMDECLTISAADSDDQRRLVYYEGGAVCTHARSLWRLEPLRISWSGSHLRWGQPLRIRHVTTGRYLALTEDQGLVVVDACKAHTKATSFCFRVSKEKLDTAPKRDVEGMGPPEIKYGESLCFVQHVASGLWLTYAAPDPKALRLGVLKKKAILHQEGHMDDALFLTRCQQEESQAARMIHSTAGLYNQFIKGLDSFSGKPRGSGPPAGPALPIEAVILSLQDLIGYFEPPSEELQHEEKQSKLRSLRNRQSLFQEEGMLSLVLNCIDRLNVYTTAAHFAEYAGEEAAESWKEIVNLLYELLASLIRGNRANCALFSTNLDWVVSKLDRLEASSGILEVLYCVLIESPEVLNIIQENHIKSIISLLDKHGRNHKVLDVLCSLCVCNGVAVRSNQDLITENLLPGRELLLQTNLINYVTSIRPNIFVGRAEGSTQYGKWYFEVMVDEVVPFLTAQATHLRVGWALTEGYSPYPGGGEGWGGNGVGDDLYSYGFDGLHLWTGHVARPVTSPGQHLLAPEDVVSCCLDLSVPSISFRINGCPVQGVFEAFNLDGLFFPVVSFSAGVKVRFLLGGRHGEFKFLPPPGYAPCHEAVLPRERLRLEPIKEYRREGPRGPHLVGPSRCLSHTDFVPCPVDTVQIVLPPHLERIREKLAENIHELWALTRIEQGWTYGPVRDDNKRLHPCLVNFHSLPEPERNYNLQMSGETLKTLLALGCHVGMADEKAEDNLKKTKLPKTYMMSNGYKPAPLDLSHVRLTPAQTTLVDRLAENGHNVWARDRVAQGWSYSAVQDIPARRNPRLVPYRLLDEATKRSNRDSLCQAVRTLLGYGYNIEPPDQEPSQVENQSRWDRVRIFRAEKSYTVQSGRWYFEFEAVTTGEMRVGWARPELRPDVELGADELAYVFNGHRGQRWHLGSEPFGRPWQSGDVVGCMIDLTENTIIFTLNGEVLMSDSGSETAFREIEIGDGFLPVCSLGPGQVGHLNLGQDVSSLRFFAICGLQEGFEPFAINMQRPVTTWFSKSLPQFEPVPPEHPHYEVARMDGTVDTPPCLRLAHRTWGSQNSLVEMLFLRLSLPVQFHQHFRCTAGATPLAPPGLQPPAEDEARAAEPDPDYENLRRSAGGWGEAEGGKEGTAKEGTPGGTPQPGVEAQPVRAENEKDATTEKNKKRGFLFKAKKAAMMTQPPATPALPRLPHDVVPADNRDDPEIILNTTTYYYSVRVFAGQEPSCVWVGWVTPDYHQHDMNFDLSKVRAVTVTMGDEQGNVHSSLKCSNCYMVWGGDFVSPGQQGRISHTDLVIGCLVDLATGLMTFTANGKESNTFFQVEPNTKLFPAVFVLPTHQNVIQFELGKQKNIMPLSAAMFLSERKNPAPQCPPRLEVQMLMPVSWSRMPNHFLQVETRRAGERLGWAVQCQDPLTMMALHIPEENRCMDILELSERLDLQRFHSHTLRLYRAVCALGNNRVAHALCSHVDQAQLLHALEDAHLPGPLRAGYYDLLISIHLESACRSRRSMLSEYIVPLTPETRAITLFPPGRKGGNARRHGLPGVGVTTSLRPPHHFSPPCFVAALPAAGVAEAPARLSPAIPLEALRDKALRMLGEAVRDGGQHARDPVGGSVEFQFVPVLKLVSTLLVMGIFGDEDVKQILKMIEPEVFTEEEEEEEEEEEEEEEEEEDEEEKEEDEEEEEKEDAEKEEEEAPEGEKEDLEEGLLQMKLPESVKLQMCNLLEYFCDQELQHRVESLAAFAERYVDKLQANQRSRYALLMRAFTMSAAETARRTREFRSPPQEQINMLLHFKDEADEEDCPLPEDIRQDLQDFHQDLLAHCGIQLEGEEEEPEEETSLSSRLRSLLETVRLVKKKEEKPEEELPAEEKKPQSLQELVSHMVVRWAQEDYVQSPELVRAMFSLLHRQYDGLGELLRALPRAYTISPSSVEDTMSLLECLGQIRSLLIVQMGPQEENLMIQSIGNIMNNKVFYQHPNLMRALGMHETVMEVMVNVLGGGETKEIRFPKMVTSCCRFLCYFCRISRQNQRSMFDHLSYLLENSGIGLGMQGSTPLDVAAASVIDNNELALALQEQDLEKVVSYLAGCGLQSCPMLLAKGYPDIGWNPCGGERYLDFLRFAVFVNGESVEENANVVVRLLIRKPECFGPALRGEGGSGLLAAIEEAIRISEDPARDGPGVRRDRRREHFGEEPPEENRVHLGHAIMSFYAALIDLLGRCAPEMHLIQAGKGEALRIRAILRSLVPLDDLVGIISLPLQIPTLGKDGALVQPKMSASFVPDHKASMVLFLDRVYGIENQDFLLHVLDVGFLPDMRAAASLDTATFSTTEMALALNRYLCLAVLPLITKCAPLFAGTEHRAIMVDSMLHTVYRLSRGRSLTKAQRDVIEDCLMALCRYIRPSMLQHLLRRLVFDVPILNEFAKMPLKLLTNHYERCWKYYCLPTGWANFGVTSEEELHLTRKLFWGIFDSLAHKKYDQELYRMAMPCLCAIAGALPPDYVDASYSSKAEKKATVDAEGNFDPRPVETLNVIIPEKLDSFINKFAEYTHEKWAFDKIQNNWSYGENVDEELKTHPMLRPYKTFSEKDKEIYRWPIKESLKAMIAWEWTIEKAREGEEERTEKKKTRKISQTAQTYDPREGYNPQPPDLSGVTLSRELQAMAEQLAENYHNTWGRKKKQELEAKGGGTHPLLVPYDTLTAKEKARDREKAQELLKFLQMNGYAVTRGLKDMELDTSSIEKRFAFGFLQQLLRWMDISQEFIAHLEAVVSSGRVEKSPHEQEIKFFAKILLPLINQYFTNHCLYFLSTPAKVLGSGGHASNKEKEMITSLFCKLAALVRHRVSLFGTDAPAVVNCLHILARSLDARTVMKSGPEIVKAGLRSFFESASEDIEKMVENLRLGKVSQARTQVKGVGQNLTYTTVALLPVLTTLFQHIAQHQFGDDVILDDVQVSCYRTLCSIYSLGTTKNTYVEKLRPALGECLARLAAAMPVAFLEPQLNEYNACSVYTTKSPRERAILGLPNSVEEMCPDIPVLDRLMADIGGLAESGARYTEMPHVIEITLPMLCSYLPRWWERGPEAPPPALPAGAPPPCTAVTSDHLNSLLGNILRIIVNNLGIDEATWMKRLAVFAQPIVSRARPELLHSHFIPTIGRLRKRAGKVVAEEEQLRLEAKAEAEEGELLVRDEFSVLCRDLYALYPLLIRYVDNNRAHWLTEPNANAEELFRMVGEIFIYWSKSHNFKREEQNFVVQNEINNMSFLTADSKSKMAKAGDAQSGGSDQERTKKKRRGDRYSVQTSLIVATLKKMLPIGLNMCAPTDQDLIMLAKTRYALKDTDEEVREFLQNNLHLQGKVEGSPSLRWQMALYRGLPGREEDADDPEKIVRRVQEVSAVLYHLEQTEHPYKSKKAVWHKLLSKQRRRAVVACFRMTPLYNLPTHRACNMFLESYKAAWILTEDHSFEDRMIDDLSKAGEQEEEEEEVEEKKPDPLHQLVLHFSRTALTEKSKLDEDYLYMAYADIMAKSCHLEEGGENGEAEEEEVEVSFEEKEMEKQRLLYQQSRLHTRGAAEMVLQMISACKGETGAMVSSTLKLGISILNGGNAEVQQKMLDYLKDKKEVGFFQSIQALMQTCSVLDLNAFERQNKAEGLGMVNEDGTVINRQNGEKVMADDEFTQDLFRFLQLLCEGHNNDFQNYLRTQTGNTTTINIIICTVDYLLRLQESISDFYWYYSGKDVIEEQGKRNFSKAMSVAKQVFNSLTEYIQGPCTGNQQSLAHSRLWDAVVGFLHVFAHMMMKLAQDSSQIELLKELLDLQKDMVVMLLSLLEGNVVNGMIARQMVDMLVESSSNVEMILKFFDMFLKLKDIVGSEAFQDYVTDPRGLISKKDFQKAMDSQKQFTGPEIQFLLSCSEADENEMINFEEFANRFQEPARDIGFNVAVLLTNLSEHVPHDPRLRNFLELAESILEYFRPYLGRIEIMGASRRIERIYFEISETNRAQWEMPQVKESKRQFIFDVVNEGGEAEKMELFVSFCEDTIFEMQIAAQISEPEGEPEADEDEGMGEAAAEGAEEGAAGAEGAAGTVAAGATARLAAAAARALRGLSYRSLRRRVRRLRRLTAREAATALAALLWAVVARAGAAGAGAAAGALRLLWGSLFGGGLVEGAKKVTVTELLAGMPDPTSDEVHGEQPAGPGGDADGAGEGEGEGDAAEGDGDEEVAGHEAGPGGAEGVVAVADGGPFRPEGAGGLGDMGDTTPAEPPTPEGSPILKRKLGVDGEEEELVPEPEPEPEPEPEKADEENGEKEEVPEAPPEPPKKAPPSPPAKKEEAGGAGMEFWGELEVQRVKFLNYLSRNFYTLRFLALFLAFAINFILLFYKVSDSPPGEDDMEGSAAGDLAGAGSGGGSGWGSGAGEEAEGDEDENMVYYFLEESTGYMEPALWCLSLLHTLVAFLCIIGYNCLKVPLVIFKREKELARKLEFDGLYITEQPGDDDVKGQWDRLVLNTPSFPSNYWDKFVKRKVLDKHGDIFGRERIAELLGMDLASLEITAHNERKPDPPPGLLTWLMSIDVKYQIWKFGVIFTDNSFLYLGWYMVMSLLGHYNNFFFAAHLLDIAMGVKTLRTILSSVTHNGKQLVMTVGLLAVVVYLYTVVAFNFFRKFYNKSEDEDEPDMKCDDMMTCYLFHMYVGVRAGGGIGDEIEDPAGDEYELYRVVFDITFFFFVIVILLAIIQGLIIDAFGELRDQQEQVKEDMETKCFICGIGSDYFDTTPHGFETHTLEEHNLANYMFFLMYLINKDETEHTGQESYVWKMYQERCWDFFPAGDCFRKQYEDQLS

On to `Cn1cnc2[nH]c(=O)[nH]c(=O)c21` [7-Methylxanthine], for which, in series [1] (anterior sclera), the Hydroxylysine content is given as 45 +/− 3 nanomol/mg tissue, the Hydroxyproline content was 667 +/− 73 nanomol/mg tissue and the Proline content is 951 +/− 111 nanomol/mg tissue. In series [1] (posterior sclera), the Hydroxylysine content is given as 44 +/− 7 nanomol/mg tissue, the Hydroxyproline content is on record as 719 +/− 81* nanomol/mg tissue and the Proline content is 1018 +/− 108* nanomol/mg tissue. In series [2], the “Effect on [3H ryanodine binding in % compared to control” value is 204%; the “Bound [3H]ryanodine % of control” value was 225 ± 11 % of control; the “Bound [3H]ryanodine pmol/mg protein” value is 3.80 ± 0.19 pmol/mg protein; the “Bound [3H]ryanodine, % of control, +1 mmol/l AMPPCP” value is reported as 225 ± 11 % of control. Besides, the “Bound [3H]ryanodine, % of control, +3 mmol/l AMP” value in series [2] was 214 ± 15 % of control. In series [3] (10 weeks treatment (Example 4)), the “Proteoglycanes Decrease, anterior sclera” value is on record as 14%; the “Proteoglycanes Increase, posterior sclera” value came to 14%; the “Content of proteoglycanes, anterior sclera” value was 2.5 +/− 0.5 μg PG/mg tissue; the “Content of proteoglycanes, posterior sclera” value is 3.3 +/− 0.3 μg PG/mg tissue. Further, in series [3], the “content of proteoglycans in posterior sclera (in words)” value is listed as “near significant increase” and the “Effect on proteoglycan content of posterior sclera in % compared to control” value came to 114%. Moreover, in series [4] (Example 4, versus control), the “content of hydroxyproline and proline in posterior sclera (in words)” value is “significantly higher content”. In series [4] (setting [7]), the “Hydroxylysine Inc.” value is listed as 7%, the “Hydroxyproline Inc.” value was found to be 16% and the “Proline Inc.” value came out at 10%.
With `NCCC[C@H](N)C(=O)O` [L-ornithine], in series [1] (anterior sclera), the Hydroxylysine content is on record as 37 +/− 4 nanomol/mg tissue, the Hydroxyproline content is reported as 605 +/− 37 nanomol/mg tissue and the Proline content is listed as 875 +/− 48 nanomol/mg tissue. Moreover, in series [1] (posterior sclera), the Hydroxylysine content is on record as 38 +/− 5 nanomol/mg tissue, the Hydroxyproline content is on record as 611 +/− 24 nanomol/mg tissue and the Proline content was 871 +/− 35 nanomol/mg tissue. Moreover, in series [3] (10 weeks treatment (Example 4)), the “Content of proteoglycanes, anterior sclera” value is 3.0 +/− 1.1 μg PG/mg tissue and the “Content of proteoglycanes, posterior sclera” value is 3.0 +/− 0.9 μg PG/mg tissue. The “Hydroxylysine Decr.” value in series [4] (setting [7]) came out at 7%.
On to `Cn1cnc2c1c(=O)[nH]c(=O)n2C` [Theobromine, 3,7-Dimethylxanthine], for which, in series [1] (anterior sclera), the Hydroxylysine content is listed as 49 +/− 6 nanomol/mg tissue, the Hydroxyproline content is reported as 751 +/− 53* nanomol/mg tissue and the Proline content is on record as 1073 +/− 78* nanomol/mg tissue. Further, in series [1] (posterior sclera), the Hydroxylysine content is 49 +/− 4* nanomol/mg tissue, the Hydroxyproline content is 741 +/− 18* nanomol/mg tissue and the Proline content is 1029 +/− 45* nanomol/mg tissue. Also, in series [2], the “Effect on [3H ryanodine binding in % compared to control” value was 124%; the “Bound [3H]ryanodine % of control” value is on record as 160 ± 22 % of control; the “Bound [3H]ryanodine pmol/mg protein” value is reported as 2.70 ± 0.37 pmol/mg protein; the “Bound [3H]ryanodine, % of control, +1 mmol/l AMPPCP” value was 160 ± 22 % of control. The “Bound [3H]ryanodine, % of control, +3 mmol/l AMP” value in series [2] was 136 ± 8 % of control. For the same compound, in series [3] (10 weeks treatment (Example 4)), the “Proteoglycanes Decrease, anterior sclera” value is recorded as 10%; the “Proteoglycanes Decrease, posterior sclera” value was 14%; the “Content of proteoglycanes, anterior sclera” value was 2.6 +/− 0.7 μg PG/mg tissue; the “Content of proteoglycanes, posterior sclera” value was 2.5 +/− 0.4 μg PG/mg tissue. Besides, in series [3], the “content of proteoglycans in posterior sclera (in words)” value was “decrease” and the “Effect on proteoglycan content of posterior sclera in % compared to control” value was determined as 86%. Besides, the “content of all collagen specific amino acids, except hydroxylysine in anterior sclera (in words)” value in series [4] (all sclera samples, Example 4, versus control) is “Significant higher content”. In series [4] (setting [7]), the “Hydroxylysine Inc.” value is 20%, the “Hydroxyproline Inc.” value is recorded as 19% and the “Proline Inc.” value came to 20%.
Take `Cn1c(=O)c2[nH]cnc2n(C)c1=O` [Theophylline, 1,3-Dimethylxanthine]: the “content of proteoglycanes in sclera (in words)” value in series [3] (comment to the examples) is recorded as “reduces”. Also, in series [3], the “Effect on proteoglycan content of posterior sclera in % compared to control” value came out at 100%. In series [5], the “c-wave at ERG” value was “reduces” and the “standing potential of the eye” value was “reduces”. Also, in series [4] (comment to the examples), the “content of hydroxylysine (in words)” value was “reduces”; the “content of the collagen specific amino acids hydroxyproline and proline (in words)” value is “increase”.
With `CN1CCc2cccc3c2[C@H]1Cc1ccc(O)c(O)c1-3` [apomorphine], the development of myopia entry in series [6] was “inhibits”.

Source of the values: US6710051B1, “Screening method” (Klaus Trier APS, priority 1997, dated 2004).
